Measurements taken from article PMC6259748, “Selection of Peptides Targeting Helix 31 of Bacterial 16S Ribosomal RNA by Screening M13 Phage-Display Libraries” (Molecules, 2011).
“Also recorded” adds a separate entry of the source.

How the values were obtained:
unmodified h31 = experiment: surface plasmon resonance (SPR), unmodified h31; assay type: binding, E. coli; conditions: analyte 1 μM; ~200 fmoles RNA immobilized; injection time 1 min
Experimental: All immobilization and subsequent binding studies were performed using a BIAcore 2000 instrument set at a temperature of 25 °C. Standard dextran surface BIAcore sensorchips (Sensor chip CM5) were purchased from BIAcore (GE Healthcare, Piscataway, NJ). Standard desorb and sanitize routines were performed according to the BIAcore guidelines before docking a new CM5 sensor chip. All buffers were filtered through sterile 0.2 μm nylon membranes (Millipore™) under vacuum. […]
Prior to immobilization, the solution of biotinylated RNA in HBS-EP buffer (10 mM HEPES, 3 mM EDTA, 150 mM NaCl, 0.005% P20 at pH 7.4) was renatured by heating to 90 °C for 2 min, cooling gradually to room temperature, and placing on ice. […] Levels of RNA captured were calculated by subtracting response units after injection from response units before injection for each flow cell. […]
Kinetic constants were determined by integration of the experimental data using the differential rate equation dRU/dt = ka·C·(RUmax-RU)-kd·RU to obtain ka and kd values simultaneously (RU = observed response, RUmax = maximum response upon saturation, C = analyte concentration, ka = association rate constant, kd = dissociation rate constant). […]

wild-type modified h31 [1] = experiment: surface plasmon resonance (SPR), modified h31; assay type: binding, E. coli; conditions: for ka (association rate constant) / kd (dissociation rate constant): 1:1 Langmuir, 150 mM NaCl, 50 μL/min, 25 °C, CM5 chip; for ka (association rate constant): 10 mM Tris·HCl, 10 mM MgCl2, 1 mM DTT, 0.005% P20, pH 7.5; for kd (dissociation rate constant): pH 7.5, 10 mM MgCl2
Experimental: Modified h31 was labeled with biotin in order to immobilize the RNA onto a surface and determine the kinetics of peptide binding by surface plasmon resonance (SPR). […] In order to enhance the signal-to-noise ratio, a GFP-protein-fused peptide, TYLPWPA-GFP, was generated and used as the analyte.
Biotinylated, modified h31 RNA was immobilized onto a streptavidin-coated CM5 chip and differing concentrations of TYLPWPA-GFP (10–100 µM) were injected as the analyte. A range of salt concentrations, detergent levels, pH conditions, and flow rates were tested, since these factors affect the peptide-RNA complex formation (data not shown). The apparent dissociation constants were determined under the following optimized conditions: 10 mM Tris·HCl, 150 mM NaCl, 10 mM MgCl2, 1 mM dithiothreitol (DTT), 0.005% (v/v) P20 at pH 7.5 as the running buffer at a flow rate of 50 μL/min.
All immobilization and subsequent binding studies were performed using a BIAcore 2000 instrument set at a temperature of 25 °C. Standard dextran surface BIAcore sensorchips (Sensor chip CM5) were purchased from BIAcore (GE Healthcare, Piscataway, NJ). Standard desorb and sanitize routines were performed according to the BIAcore guidelines before docking a new CM5 sensor chip. All buffers were filtered through sterile 0.2 μm nylon membranes (Millipore™) under vacuum. Before derivatizing the flow cells with streptavidin, the CM5 sensor chip was pre-conditioned using three successive 10 μL injections of chip-preparation solution (10 mM NaOH, 500 mM NaCl) at 100 μL/min, followed by a normalization routine using BIAnormalizing solution (40% glycerol). Streptavidin derivatization was performed according to standard procedures.
Prior to immobilization, the solution of biotinylated RNA in HBS-EP buffer (10 mM HEPES, 3 mM EDTA, 150 mM NaCl, 0.005% P20 at pH 7.4) was renatured by heating to 90 °C for 2 min, cooling gradually to room temperature, and placing on ice. Flow cells were functionalized by injecting 30 μL of RNA at a time using the MANUAL INJECT command at a flow rate of 10 μL/min, until the desired immobilization level was reached. One of the flow cells was used to immobilize RNA, while the adjacent cell remained unmodified to serve as a blank-control for matrix effects. Levels of RNA captured were calculated by subtracting […] for each flow cell. After RNA immobilization, both flow cells were blocked with 100 μL of 1 mg/mL biotin at 5 μL/min.
For the SPR experiments, the peptides were cloned into plasmid pBacEmGH (Cunningham Lab, to be described elsewhere) under transcriptional regulation of a PBAD promoter. Upon induction with L-arabinose, the resulting construct produces a fusion protein in which the peptide is fused to the N-terminus of EmGFP containing a C-terminus 6 x His affinity tag (PEP-EmGFP-6 x His).
Peptide samples were prepared by serial dilutions from stock solutions. Dilutions were made in running buffer (10 mM Tris·HCl, 150 mM NaCl, 10 mM MgCl2, 1 mM DTT, 0.005% (v/v) P20 at pH 7.5). All procedures for binding were automated, as optimized methods using repetitive cycles of sample injection and regeneration. Typically, running buffer was injected for ~30 min prior to experiment to establish a stable baseline value. Peptide solutions (200 μL) were injected at a kinetic flow rate of 50 μL/min, using the KINJECT command. All peptide samples were injected from 7 mm plastic vials (BIAcore) that were capped with pierceable plastic-crimp-caps to minimize carry-over and sample evaporation. Samples were injected in order of increasing concentration. The surface was regenerated using 150 μL of 500 mM NaCl. The data were fit to a 1:1 binding Langmuir model using BIAevaluation 3.0 software. […]

[2] = system: GFP-S11-labeled 30S subunits; experiment: ribosome-binding assay on Tentagel beads; set-up: species or system E. coli
Experimental: The purpose of this experiment was to determine whether the selected peptides have affinity for bacterial ribosomes. The binding affinities of various peptides could also be compared by this method. Small ribosomal subunits, 30S, labeled with GFP on ribosomal protein S11 were added to peptides covalently attached to Tentagel beads (Figure 4A). […] The peptides were chemically synthesized on Tentagel beads with their N-termini exposed. Increasing concentrations of GFP-tagged 30S subunits were added to the Tentagel-bound peptides and unbound 30S subunits were removed by washing. Relative fluorescence intensity of the 30S subunits bound to the peptides on bead was determined by imaging on a fluorescence microscope, with the assumption that the level of fluorescence on the beads was proportional to the affinity of the ribosome for the peptide sequence.
Four peptides isolated from the phage-display experiment, […], DIRTQRE, TLWDLIP, and […], were synthesized on Tentagel (Rapp Polymer, Tübingen, Germany) beads using standard Fmoc synthesis. The beads were stored in DMF until use. The beads were then washed three times with 450 μl of water, and three times with 450 μL of the binding buffer B (binding buffer: 20 mM HEPES, pH 7.3, 10 mM MgCl2, 100 mM KCl), using 0.45 μm MWCO Nanosep (Pall Corporation, Ann Arbor, MI). The beads were then centrifuged at 6,000 rpm for 1–2 min.
(§1) Fluorescently labeled 30S subunits were isolated by sucrose gradient centrifugation in 5 mM Mg^2+ [82]. For control experiments, His(6)-EmGFP-S11 was purified using IMAC resin (Bio-Rad, Hercules, CA) and the fluorescence was assayed using beads carrying peptides with ribosomes, beads carrying peptides with His(6)-EmGFP-S11 (no ribosomes) and beads only with ribosomes (no peptides).
(§2) The fluorescent ribosomes were incubated in binding buffer B (20 mM HEPES, pH 7.3, 10 mM MgCl2, 100 mM KCl) at 37 °C for 30 min. Next, 25 pmoles of ribosome solution was added to each peptide, and the mixture was incubated overnight at 4 °C with agitation. Unbound ribosomes were removed by two 450 μL washes with binding buffer B and centrifugation at 6,000 rpm for 1–2 min. The beads were resuspended in 40 μL of binding buffer B for microscope screening and kept on ice until scanning. The beads (20 μL) were spread on microscope slides for scanning (Olympus 1X71 microscope, TH4 100 Olympus lamp, Olympus UCMAD 3 camera, 20× magnification). An average of two pictures were taken per slide, eliminating beads presenting uneven swelling and cracks.

[3] = system: translation of green fluorescent protein (GFP); experiment: coupled in vitro transcription-translation inhibition assay (GFP); assay type: biochemical, E. coli
Experimental: A cell-free translation assay was used to test the potential inhibitory effects of the peptides on protein synthesis. Different concentrations of peptides were added to E. coli S30 extracts and the extent of inhibition was monitored by the measurement of green fluorescent protein (GFP) translation.
The inhibitory effects of selected peptides (DIRTQRE, CVRPFAL, FVRPFAL, TLWDLIP and TYLPWPA) on cellular processes were determined by in vitro coupled transcription-translation inhibition assay. The PURExpress™ in vitro protein synthesis kit #E6800S from New England Biolabs (Beverly, MA) was used for this purpose. A DNA template for GFP (pRSETEmGFP plasmid, Invitrogen) was employed at a concentration of 10 µg/mL in a 15 µL of reaction volume. Different concentrations of peptides were added, ranging from 300 µM to 2 mM. The DNA template was added only after mixing of the peptides or streptomycin so that they could bind to their target region first. For the control, streptomycin was added at a final concentration of 300 µM. The reaction was incubated in 384-well, Costar, clear-well, black plates and in situ incubated at 37 °C in a Gemini XPS microplate spectrofluorometer (Molecular Devices, Sunnyvale, CA) and the amount of GFP produced was monitored at different time intervals from 0 min to 2 h by fluorescence (excitation at 487 nm, emission at 509 nm).

His(6)-EmGFP-S11 protein = experiment: bead control with S11-emGFP protein (no ribosomes); assay type: binding, E. coli; conditions: purified His(6)-EmGFP-S11 added to peptide on beads
Experimental: The fluorescence intensity of each set of beads containing the selected peptides was quantified.
as §1, §2

wild-type modified h31 [4] = experiment: surface plasmon resonance (SPR), modified h31; assay type: binding, E. coli; conditions: SPR kinetic analysis, 1:1 Langmuir; pH 7.5; 150 mM NaCl, 10 mM MgCl2; 50 μL/min; 25 °C; analyte 0–1 μM

CVRPFAL-GFP
binding interaction with unmodified h31 (unmodified h31): did not reveal any binding interactions; also recorded: No binding interaction was detected
ka (association rate constant) (wild-type modified h31 [1]): (120 ± 1) × 10^2 M^-1s^-1
kd (dissociation rate constant) (wild-type modified h31 [1]): (2.6 ± 0.02) × 10^-3 s^-1

TLWDLIP [heptapeptide selected against modified h31, with and without counter selection]
order of binding preference by the 30S subunits (from high to low) ([2]; Tentagel beads, fluorescence microscopy, pH 7.3): TYLPWPA > CVRPFAL ≈ TLWDLIP > DIRTQRE
fluorescence on beads after 30S binding ([2]; peptide on Tentagel beads, 30S subunits overnight at 4 °C, 20 mM HEPES, pH 7.3, 10 mM MgCl2, 100 mM KCl, duplicate): Fluorescence is observed
inhibition of in vitro protein synthesis ([3]; cell-free translation, summary statement): inhibit in vitro protein synthesis
order of translation inhibition by peptides (from high to low) ([3]; peptides at 1 mM, 37 °C, GFP fluorescence): CVRPFAL ≈ FVRPFAL > TLWDLIP > TYLPWPA > DIRTQRE
binding affinity to modified h31 (wild-type modified h31 [1]; in words, comparable to known antibiotics targeting 16S rRNA): high nM
fluorescence on beads with S11-emGFP protein (His(6)-EmGFP-S11 protein): did not show any fluorescence; also recorded: fluorescence was not observed

TLWDLIP-GFP
ka (association rate constant) (wild-type modified h31 [1]): (93 ± 2) × 10^2 M^-1s^-1
kd (dissociation rate constant) (wild-type modified h31 [1]): (3.1 ± 0.3) × 10^-3 s^-1
KD (kd/ka) (wild-type modified h31 [4]): 0.33 ± 0.007 µM
